From the NIST ThermoML archive (doi:10.1016/j.fluid.2018.10.024)
Numbers after ± are expanded uncertainties.

Assays:
[1] = 101.33 kPa, Liquid; for viscosity: Capillary tube (Ostwald / Ubbelohde) method; for mass density: Vibrating tube method
[2] = refractive index (Na D-line) (dimensionless); conditions: 101.33 kPa, Liquid, Standard Abbe refractometry
[3] = xn = mol fraction of the nth substance listed; conditions: 101 kPa, Liquid, x1 = 1; for viscosity: Capillary tube (Ostwald / Ubbelohde) method; for mass density: Vibrating tube method
[4] = refractive index (Na D-line) (dimensionless); xn = mol fraction of the nth substance listed; conditions: 101 kPa, Liquid, Standard Abbe refractometry, x1 = 1

CC(C)=O [acetone]
Conditions	mass density, [1] [kg/m3]	refractive index, [2]	viscosity, [1] [mPa·s]
298.15 K	784.41 ± 0.12	1.3558 ± 0.0006	0.3034 ± 0.0024
303.15 K	778.66 ± 0.13	1.3534 ± 0.0006	0.2966 ± 0.0024
308.15 K	773.08 ± 0.13	1.3509 ± 0.0006	0.2831 ± 0.0023
313.15 K	766.95 ± 0.13	1.349 ± 0.0006	0.2689 ± 0.0023
318.15 K	761.26 ± 0.13	1.3449 ± 0.0006	0.2511 ± 0.0022

CO [methanol] + ClC(Cl)Cl
Conditions	mass density, [3] [kg/m3]	refractive index, [4]	viscosity, [3] [mPa·s]
298.15 K	787.21 ± 0.12	1.3271 ± 0.0006	0.5467 ± 0.0037
303.15 K	782.75 ± 0.12	1.3245 ± 0.0006	0.5058 ± 0.0035
308.15 K	777.56 ± 0.12	1.323 ± 0.0006	0.4765 ± 0.0034
313.15 K	772.97 ± 0.12	1.3208 ± 0.0006	0.4426 ± 0.0032
318.15 K	768.03 ± 0.12	1.3184 ± 0.0006	0.4153 ± 0.003

CO [methanol]
Conditions	mass density, [1] [kg/m3]	refractive index, [2]	viscosity, [1] [mPa·s]
298.15 K	787.21 ± 0.12	1.3271 ± 0.0006	0.5467 ± 0.0037
303.15 K	782.75 ± 0.12	1.3245 ± 0.0006	0.5058 ± 0.0035
308.15 K	777.56 ± 0.12	1.323 ± 0.0006	0.4818 ± 0.0034
313.15 K	772.97 ± 0.12	1.3208 ± 0.0006	0.4484 ± 0.0032
318.15 K	768.03 ± 0.13	1.3184 ± 0.0006	0.4208 ± 0.0031

ClC(Cl)Cl [trichloromethane]
Conditions	mass density, [1] [kg/m3]	refractive index, [2]	viscosity, [1] [mPa·s]
298.15 K	1478.75 ± 0.38	1.4422 ± 0.0006	0.5916
303.15 K	1469.16 ± 0.37	1.4397 ± 0.0006	0.558
308.15 K	1460.01 ± 0.37	1.4356 ± 0.0006	0.5333
313.15 K	1450.39 ± 0.36	1.4338 ± 0.0006	0.5072
318.15 K	1440.03 ± 0.36	1.4297 ± 0.0006	0.4849

CO [methanol] + CC(C)=O
Conditions	mass density, [3] [kg/m3]	refractive index, [4]	viscosity, [3] [mPa·s]
298.15 K	787.21 ± 0.12	1.3271 ± 0.0006	0.5467 ± 0.0037
303.15 K	782.75 ± 0.12	1.3245 ± 0.0006	0.5058 ± 0.0035
308.15 K	777.56 ± 0.12	1.323 ± 0.0006	0.4818 ± 0.0034
313.15 K	772.97 ± 0.12	1.3208 ± 0.0006	0.4484 ± 0.0032
318.15 K	768.03 ± 0.12	1.3184 ± 0.0006	0.4208 ± 0.0031

CC(C)=O [acetone] + ClC(Cl)Cl
Conditions	mass density, [3] [kg/m3]	refractive index, [4]	viscosity, [3] [mPa·s]
298.15 K	784.41 ± 0.12	1.3558 ± 0.0006	0.3034 ± 0.0024
303.15 K	778.66 ± 0.12	1.3534 ± 0.0006	0.2966 ± 0.0024
308.15 K	773.08 ± 0.13	1.3509 ± 0.0006	0.2831 ± 0.0024
313.15 K	766.95 ± 0.13	1.349 ± 0.0006	0.2689 ± 0.0023
318.15 K	761.26 ± 0.13	1.3449 ± 0.0006	0.2511 ± 0.0022
